# In patent US5773423A (priority 1994, dated 1998):
# Numbering of substitutions follows the chain as printed. Read-outs that look alike come from different tables or passages of the source.
# Legend:
# [1] = biological target: T1, adenosine uptake sites in rat brain membranes (Rattus norvegicus, UniProt O54698); experiment: Competition for [3H]NBTI binding at adenosine uptake sites in rat striatal membranes; conditions: for Ki: read-out: Ki (NBTI), 0.3 nM [3H]NBTI, 30 min at 23° C., pH 7.4
# T1 sequence (O54698 1-457): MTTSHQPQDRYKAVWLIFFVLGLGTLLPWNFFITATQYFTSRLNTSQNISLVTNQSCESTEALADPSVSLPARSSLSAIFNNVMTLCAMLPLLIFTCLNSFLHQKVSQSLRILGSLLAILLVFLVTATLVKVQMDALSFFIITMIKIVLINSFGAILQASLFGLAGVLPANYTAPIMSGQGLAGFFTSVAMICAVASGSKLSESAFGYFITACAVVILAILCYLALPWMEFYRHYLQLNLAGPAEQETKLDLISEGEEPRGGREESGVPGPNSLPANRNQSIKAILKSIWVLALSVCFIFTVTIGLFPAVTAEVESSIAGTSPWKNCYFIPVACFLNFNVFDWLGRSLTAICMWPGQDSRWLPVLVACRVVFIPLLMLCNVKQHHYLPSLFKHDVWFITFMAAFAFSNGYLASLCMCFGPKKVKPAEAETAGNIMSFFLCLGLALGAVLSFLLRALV
# [2] = biological target: T2, A1 and A3 adenosine receptors in mouse brain membranes (Mus musculus, UniProt Q60612)
# T2 sequence (Q60612 1-326): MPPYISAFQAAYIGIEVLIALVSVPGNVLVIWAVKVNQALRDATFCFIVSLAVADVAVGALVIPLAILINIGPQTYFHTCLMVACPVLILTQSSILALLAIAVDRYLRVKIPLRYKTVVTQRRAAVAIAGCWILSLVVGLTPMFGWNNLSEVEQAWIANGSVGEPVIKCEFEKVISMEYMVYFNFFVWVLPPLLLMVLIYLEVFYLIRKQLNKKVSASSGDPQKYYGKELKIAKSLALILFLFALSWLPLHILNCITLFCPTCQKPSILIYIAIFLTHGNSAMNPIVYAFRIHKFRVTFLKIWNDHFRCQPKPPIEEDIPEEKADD
# [3] = tested on: locomotor activity in mice; conditions: CSC 1 mg/kg, shown earlier; cited from earlier work
# [4] = tested on: locomotor activity in mice; experiment: Locomotor activity in mice (open field, Digiscan activity monitor); type: in vivo, mouse (NIH Swiss); conditions: CSC 1 mg/kg
# [5] = biological target: T3, A1 receptors from rat brain membranes (Rattus norvegicus, UniProt P25099); experiment: biochemical; type: binding
# T3 construct: Rat cerebral cortical and striatal membranes were prepared; from tissue; host or cells: rat brain (cerebral cortical) membranes
# T3 sequence (P25099 1-326): T2 sequence (Q60612 1-326) with E151V, A155D, I157R, E316D, I319L, D325E
# [6] = biological target: T4, A2 receptors from rat striatal membranes (Rattus norvegicus, UniProt P30543); experiment: Radioligand binding at A2 (A2a) receptors, displacement of [3H]CGS 21680 (or [3H]NECA with 50 nM CPA) from rat striatal membranes
# T4 construct: Rat cerebral cortical and striatal membranes were prepared; from tissue; host or cells: rat striatal membranes
# T4 sequence (P30543 whole entry): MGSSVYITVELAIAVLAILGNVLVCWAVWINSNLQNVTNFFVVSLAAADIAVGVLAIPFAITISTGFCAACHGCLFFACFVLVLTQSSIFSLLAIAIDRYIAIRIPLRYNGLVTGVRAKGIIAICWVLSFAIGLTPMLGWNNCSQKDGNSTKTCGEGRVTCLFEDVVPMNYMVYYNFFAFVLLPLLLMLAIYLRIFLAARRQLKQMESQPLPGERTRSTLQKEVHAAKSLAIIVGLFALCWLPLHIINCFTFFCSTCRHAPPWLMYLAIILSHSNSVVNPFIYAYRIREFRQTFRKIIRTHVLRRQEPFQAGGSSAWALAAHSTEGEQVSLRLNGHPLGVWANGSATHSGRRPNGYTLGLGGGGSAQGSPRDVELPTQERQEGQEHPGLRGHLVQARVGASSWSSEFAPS
# rat A3 receptors = biological target: T5, rat A3 receptors (Rattus norvegicus, UniProt P28647); experiment: Irreversible inhibition of radioligand binding at rat A3 receptors after preincubation
# T5 construct: expressed in transfected cells; host or cells: CHO cells, transfected (the IC50); RBL-2H3 rat mast cells (endogenous) also named
# T5 sequence (P28647 1-320): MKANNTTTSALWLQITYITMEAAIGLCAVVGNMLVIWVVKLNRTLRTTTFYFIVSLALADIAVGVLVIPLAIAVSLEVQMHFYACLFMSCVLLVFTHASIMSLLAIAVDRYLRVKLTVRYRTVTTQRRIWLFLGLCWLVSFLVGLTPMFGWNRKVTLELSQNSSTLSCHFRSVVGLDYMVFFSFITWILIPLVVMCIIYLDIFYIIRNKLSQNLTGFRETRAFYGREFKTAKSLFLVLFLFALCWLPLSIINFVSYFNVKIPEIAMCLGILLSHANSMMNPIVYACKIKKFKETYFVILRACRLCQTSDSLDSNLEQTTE
# [7] = biological target: T6, A3 adenosine receptors in mouse brain membranes (Mus musculus, UniProt Q61618); experiment: [125I]AB-MECA saturation binding to A3 receptors in mouse brain membranes in the presence of 100 nM CPX
# T6 construct: in mouse brain membranes; from tissue; host or cells: NIH Swiss mouse brain region membranes (cerebellum for the Kd/Bmax)
# T6 sequence (Q61618 1-319): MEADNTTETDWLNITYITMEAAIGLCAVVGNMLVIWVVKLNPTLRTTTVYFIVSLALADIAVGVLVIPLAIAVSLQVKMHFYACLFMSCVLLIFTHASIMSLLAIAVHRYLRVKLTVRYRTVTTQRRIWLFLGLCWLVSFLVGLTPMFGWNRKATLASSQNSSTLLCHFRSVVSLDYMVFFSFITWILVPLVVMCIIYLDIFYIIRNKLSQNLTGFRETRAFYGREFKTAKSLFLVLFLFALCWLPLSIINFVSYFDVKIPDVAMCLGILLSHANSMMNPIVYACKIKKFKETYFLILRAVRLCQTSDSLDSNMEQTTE
# [8] = biological target: T4, A2 receptors from rat striatal membranes; conditions: Table 2, footnotes d/e: literature; read-out: Ki (A2); cited from earlier work
# [9] = biological target: T7, A3 adenosine receptors in rat brain membranes (Rattus norvegicus, UniProt P28647)
# T7 sequence (P28647 1-320): T5 sequence (P28647 1-320)
# [10] = tested on: A1 and A3 adenosine receptors in mouse brain membranes
smiles,measurement,setting,value
"OC[C@H]1O[C@@H](n2cnc3c(NCc4ccccc4)ncnc32)[C@H](O)[C@@H]1O [Compound 7, N^6 -benzyladenosine, reference compound]",Ki,[1],0.203 ± 0.093 µM
"CCCn1c(=O)c2[nH]c(C3CCCC3)nc2n(CCC)c1=O [Compound 130, 8-cyclopentyl-1,3-dipropylxanthine]",displacement of specific [125I]AB-MECA binding (in words),[2],completely displaced most but not all of the high affinity [^125 I]AB-MECA binding
same,Ki for displacement of [125I]AB-MECA binding,[2]; sigmoidal competition curves,2 to 8 nM
"Cn1c(=O)c2c(nc(C=Cc3cccc(Cl)c3)n2C)n(C)c1=O [Compound 134, 8-(3-chlorostyryl)caffeine]",reversal of APEC-elicited behavioral depression (in words),[3],complete reversal
same,reversal of 3-IB-MECA-mediated locomotor depression (in words),[4],"small, statistically insignificant reversal"
same,displacement of specific [125I]AB-MECA binding (in words),[2],failed to displace specific binding of [^125 I]AB-MECA
"CNC(=O)[C@H]1O[C@@H](n2cnc3c(NCc4cccc(I)c4)nc(Cl)nc32)[C@H](O)[C@@H]1O [Example 44, 2-chloro-N^6-(3-iodobenzyl)-9-[5-(methylamido)-β-D-ribofuranosyl]-adenine]",Ki,[1],15.2 µM
"CNC(=O)[C@H]1O[C@@H](n2cnc3c(NCc4cccc(I)c4)nc(SC)nc32)[C@H](O)[C@@H]1O [Example 46, N^6-(3-iodobenzyl)-2-methylthio-9-[5-(methylamido)-β-D-ribofuranosyl]-adenine]",Ki,"[5]; Table 2, [3H]PIA, rat brain membranes, read-out: Ki (A1)",2140 ± 100 nM
same,Ki,[1],49.5 µM
same,Ratio of Ki (NBTI)/Ki ([125I]AB-MECA),[1]; selectivity for cloned rat A3 receptors vs adenosine uptake site,"22,000"
same,Ki,"[6]; Table 2, [3H]CGS 21680, rat striatal membranes, read-out: Ki (A2)",3210 ± 1360 nM
CNC(=O)[C@H]1O[C@@H](n2cnc3c(NCc4cccc(N=C=S)c4)ncnc32)[C@H](O)[C@@H]1O [N^6-(3-isothiocyanatobenzyl)adenosine-5'-N-methyluronamide],Ki,[5],145 nM
same,irreversible inhibition at rat A1 receptors (in words),[5],not at rat A1 or A2a receptors
same,IC50,rat A3 receptors,50 nM
same,Kd of remaining A3 receptor sites (in words),rat A3 receptors,No change was observed in the Kd value
same,irreversible inhibition of A3 binding (in words),rat A3 receptors; CHO cells or RBL-2H3 mast cells,irreversible inhibition of radioligand binding at rat A3 receptors
same,Ki,[6],272 nM
same,irreversible inhibition at rat A2a receptors (in words),[6],not at rat A1 or A2a receptors
"CNC(=O)[C@H]1O[C@@H](n2cnc3c(NCc4ccc(N)c([125I])c4)ncnc32)[C@H](O)[C@@H]1O [[^125 I]AB-MECA, [^125 I]4-amino-3-iodobenzyladenosine-5'-N-methyluronamide]","A3 share of total specific binding, cerebellum and striatum",[7]; 0.4 nM [125I]AB-MECA,18 % of total specific binding
same,"A3 share of total specific binding, hippocampus and cortex",[7]; 0.4 nM [125I]AB-MECA,7-9 % of total specific binding
same,Kd,[7]; mouse cerebellar membranes,1.39 nM
same,Ki,[8],197 nM
same,Bmax in rat brain membranes,[9],43 fmol/mg protein
same,specific binding of total binding,[10],ca. 70 % of total binding
same,nonspecific binding,[10]; in the presence of 40 μM R-PIA,approximately 30 % of the total binding
same,Bmax cerebellum,[2]; cerebellum,120±5 fmol specifically bound/mg protein
same,Bmax cortex,[2]; cortex,159±15 fmol specifically bound/mg protein
same,Bmax hippocampus,[2]; hippocampus,215±17 fmol specifically bound/mg protein
same,Kd values (Scatchard analysis),[2]; regions of mouse brain,1.9 to 2.8 nM
same,Bmax striatum,[2]; striatum,123±23 fmol specifically bound/mg protein
